Values belong to the compound of their own block, whether it stands above or below them.
Columns and labels:
MTP = biological target: T1, MTP (Bos taurus, UniProt P55156); assay: MTP triglyceride transfer activity; assay type: biochemical; conditions: 20 to 50 μM
T1 sequence (P55156 12-887): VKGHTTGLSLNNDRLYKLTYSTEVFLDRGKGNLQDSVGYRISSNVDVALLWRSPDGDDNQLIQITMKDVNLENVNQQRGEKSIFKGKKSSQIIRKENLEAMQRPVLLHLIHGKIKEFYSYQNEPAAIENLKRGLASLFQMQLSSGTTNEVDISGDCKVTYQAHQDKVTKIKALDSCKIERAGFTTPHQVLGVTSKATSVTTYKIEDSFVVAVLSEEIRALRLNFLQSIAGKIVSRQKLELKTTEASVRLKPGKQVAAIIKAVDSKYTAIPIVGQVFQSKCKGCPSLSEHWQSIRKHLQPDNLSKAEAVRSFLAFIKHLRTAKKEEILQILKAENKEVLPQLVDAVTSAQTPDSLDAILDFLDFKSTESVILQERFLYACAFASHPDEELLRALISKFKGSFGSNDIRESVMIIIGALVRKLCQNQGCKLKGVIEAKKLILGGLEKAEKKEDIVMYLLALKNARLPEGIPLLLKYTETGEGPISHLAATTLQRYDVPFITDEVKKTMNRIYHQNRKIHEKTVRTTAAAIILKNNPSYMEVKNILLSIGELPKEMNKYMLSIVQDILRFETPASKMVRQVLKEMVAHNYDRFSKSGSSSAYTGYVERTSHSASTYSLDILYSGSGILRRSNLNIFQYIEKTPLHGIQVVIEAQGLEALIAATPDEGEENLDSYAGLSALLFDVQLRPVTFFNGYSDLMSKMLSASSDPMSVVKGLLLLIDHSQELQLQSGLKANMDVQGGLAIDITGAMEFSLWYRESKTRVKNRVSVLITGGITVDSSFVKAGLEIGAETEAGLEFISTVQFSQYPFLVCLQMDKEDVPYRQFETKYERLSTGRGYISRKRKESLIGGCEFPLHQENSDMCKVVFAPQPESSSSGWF
T1 sequence (P05307 21-510 partner): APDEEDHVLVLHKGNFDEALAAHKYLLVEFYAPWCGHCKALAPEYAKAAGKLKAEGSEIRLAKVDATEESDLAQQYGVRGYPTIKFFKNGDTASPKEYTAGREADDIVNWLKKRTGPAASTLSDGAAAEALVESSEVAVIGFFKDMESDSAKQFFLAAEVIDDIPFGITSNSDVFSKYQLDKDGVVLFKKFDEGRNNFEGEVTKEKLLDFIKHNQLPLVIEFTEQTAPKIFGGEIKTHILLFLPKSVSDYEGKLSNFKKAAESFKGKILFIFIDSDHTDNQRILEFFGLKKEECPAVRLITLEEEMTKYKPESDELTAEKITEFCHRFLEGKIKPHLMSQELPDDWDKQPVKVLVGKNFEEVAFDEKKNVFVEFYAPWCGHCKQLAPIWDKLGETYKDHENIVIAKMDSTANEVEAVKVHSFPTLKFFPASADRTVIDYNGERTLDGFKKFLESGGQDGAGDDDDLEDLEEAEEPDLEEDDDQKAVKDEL
Experimental: (§1) Studies were performed to determine whether apoB/MTP binding was required for secretion of apoB-containing lipoproteins. Several compounds were screened. In the absence of any test compound, 15.47 fmol of low density lipoproteins (LDL)which contain ApoB was bound to immobilized MTP. Two test compounds, AGI-3 and AGI-S17, inhibited 70 to 90% of the binding at 40-50 μM concentrations. […] The effect of these same compounds on MTP's lipid transfer activity was also evaluated. BMS-200150 inhibited triglyceride transfer activity by 60% at concentrations in the range of 20 to 50 μM. AGI-3 inhibited only 20-30% of the activity at these same concentrations.

LDL/MTP binding [1] = biological target: T2, LDL/MTP binding (Bos taurus, UniProt P55156); assay: Effect of compounds on binding of LDL to immobilized MTP (ELISA); parameters: species or system human
T2 sequence (P55156 12-887): T1 sequence (P55156 12-887)
T2 sequence (P05307 21-510 partner): T1 sequence (P05307 21-510 partner)
Experimental: as §1
ELISA plates coated in triplicate with purified heterodimeric MTP (1 μg/well) were incubated with human LDL (1 μg/well) in the presence of indicated concentrations of various compounds. Microtiter wells were washed three times with PBS-Tween and apoB bound was quantitated by a sandwich ELISA (Hussain, M. M. et al. 1995 Arterioscl. Thronb. Vasc. Biol. 15:485-494). In parallel, a standard curve for apoB was generated by coating wells with a monoclonal antibody, 1D1, and incubating with different concentrations of LDL (0-14 ng/well) as previously described (Hussain, M. M. et al. 1995 Arterioscl. Thromb . Vasc. Biol. 15:485-494).

LDL/MTP binding [2] = biological target: T2, LDL/MTP binding; assay: Effect of lipid vesicles on binding of LDL to immobilized MTP; conditions: for effect of inclusion in PC vesicles on PC-stimulated binding of LDL to MTP: added to PC vesicles
Experimental: The effect of lipids on the binding of MTP with apoB was also examined. Phosphatidylcholine (PC) and sphingomyelin increased the interactions by 2 and 1.5 times respectively. In similar studies, PC vesicles at a concentration of 2.4 mM increased the binding of LDL to MTP by 2 to 4 times. As a control, the effect of phospholipids on the binding of LDL to the monoclonal antibody 1D1 and polyclonal antibodies was studied. 1D1 binds to a portion of the MTP specific binding site on apoB. This antibody also recognizes all subclasses of VLDL and LDL, as well as delipidated apoB. […] The effect of PC vesicles on the interaction of apoB to polyclonal antibodies was studied by incubating immobilized LDL with the antibodies both in the presence and absence of PC. PC vesicles had no effect on binding.
To study the effect of triglycerides (TG) on apoB/MTP specific binding, PC vesicles or emulsions containing two different concentrations of TG were prepared and their effect on LDL binding to MTP was compared with those of PC vesicles with no TG.
The effect of different lipids was studied in more detail using PC-based vesicles (Table 3). Again, PC vesicles increased the binding of LDL to MTP by 3-fold.
Required amounts of lipids in chloroform were added to a glass vial and the solvent was evaporated under nitrogen gas. A calculated amount of the buffer (15 mM Tris-HCl, 1 mM EDTA, 0.02% sodium azide, pH 7.4) was added, and the contents were sonicated (setting 5, output 50-60%) on ice until the solution was mostly clear. The vesicles were then centrifuged at 3500 rpm for 15 minutes, 4° C., and the supernatant used to assay the effect of vesicles on binding.
LDL (20 nM) was incubated with immobilized MTP (1 μg/ml) in the presence and absence of different concentrations of PC or sphingomyelin vesicles for 2 hours at 37° C. and the amount of LDL bound quantitated. The amount of LDL bound in the absence of lipid vesicles was used as 100%. Parallel experiments were also performed wherein LDL (78 pM) was incubated with immobilized monoclonal antibody, 1D1, instead of MTP. LDL (20 nM) was also incubated with immobilized MTP in the presence of different concentrations of PC, PC/TG (molar ratio 400:1) vesicles, or PC/TG dispersions (molar ratio 1:1) for 2 hours at 37° C., and the amount of apoB bound was quantitated by ELISA.

immobilized LDL [3] = biological target: T3, immobilized LDL (Homo sapiens, UniProt P04114); assay: Binding of apoA-I and apoA-I/lipid complexes to immobilized LDL
Experimental: The binding of apoA-I and apoA-I/lipid complexes to immobilized LDL was examined. ApoA-I incubated with or without lipid vesicles was subjected to ultracentrifugation and apoA-I/lipid complexes were isolated. Binding of apoA-I and apoA-I/lipid complexes to immobilized LDL was then examined.
Target sequence in this assay (P04114 28-4563): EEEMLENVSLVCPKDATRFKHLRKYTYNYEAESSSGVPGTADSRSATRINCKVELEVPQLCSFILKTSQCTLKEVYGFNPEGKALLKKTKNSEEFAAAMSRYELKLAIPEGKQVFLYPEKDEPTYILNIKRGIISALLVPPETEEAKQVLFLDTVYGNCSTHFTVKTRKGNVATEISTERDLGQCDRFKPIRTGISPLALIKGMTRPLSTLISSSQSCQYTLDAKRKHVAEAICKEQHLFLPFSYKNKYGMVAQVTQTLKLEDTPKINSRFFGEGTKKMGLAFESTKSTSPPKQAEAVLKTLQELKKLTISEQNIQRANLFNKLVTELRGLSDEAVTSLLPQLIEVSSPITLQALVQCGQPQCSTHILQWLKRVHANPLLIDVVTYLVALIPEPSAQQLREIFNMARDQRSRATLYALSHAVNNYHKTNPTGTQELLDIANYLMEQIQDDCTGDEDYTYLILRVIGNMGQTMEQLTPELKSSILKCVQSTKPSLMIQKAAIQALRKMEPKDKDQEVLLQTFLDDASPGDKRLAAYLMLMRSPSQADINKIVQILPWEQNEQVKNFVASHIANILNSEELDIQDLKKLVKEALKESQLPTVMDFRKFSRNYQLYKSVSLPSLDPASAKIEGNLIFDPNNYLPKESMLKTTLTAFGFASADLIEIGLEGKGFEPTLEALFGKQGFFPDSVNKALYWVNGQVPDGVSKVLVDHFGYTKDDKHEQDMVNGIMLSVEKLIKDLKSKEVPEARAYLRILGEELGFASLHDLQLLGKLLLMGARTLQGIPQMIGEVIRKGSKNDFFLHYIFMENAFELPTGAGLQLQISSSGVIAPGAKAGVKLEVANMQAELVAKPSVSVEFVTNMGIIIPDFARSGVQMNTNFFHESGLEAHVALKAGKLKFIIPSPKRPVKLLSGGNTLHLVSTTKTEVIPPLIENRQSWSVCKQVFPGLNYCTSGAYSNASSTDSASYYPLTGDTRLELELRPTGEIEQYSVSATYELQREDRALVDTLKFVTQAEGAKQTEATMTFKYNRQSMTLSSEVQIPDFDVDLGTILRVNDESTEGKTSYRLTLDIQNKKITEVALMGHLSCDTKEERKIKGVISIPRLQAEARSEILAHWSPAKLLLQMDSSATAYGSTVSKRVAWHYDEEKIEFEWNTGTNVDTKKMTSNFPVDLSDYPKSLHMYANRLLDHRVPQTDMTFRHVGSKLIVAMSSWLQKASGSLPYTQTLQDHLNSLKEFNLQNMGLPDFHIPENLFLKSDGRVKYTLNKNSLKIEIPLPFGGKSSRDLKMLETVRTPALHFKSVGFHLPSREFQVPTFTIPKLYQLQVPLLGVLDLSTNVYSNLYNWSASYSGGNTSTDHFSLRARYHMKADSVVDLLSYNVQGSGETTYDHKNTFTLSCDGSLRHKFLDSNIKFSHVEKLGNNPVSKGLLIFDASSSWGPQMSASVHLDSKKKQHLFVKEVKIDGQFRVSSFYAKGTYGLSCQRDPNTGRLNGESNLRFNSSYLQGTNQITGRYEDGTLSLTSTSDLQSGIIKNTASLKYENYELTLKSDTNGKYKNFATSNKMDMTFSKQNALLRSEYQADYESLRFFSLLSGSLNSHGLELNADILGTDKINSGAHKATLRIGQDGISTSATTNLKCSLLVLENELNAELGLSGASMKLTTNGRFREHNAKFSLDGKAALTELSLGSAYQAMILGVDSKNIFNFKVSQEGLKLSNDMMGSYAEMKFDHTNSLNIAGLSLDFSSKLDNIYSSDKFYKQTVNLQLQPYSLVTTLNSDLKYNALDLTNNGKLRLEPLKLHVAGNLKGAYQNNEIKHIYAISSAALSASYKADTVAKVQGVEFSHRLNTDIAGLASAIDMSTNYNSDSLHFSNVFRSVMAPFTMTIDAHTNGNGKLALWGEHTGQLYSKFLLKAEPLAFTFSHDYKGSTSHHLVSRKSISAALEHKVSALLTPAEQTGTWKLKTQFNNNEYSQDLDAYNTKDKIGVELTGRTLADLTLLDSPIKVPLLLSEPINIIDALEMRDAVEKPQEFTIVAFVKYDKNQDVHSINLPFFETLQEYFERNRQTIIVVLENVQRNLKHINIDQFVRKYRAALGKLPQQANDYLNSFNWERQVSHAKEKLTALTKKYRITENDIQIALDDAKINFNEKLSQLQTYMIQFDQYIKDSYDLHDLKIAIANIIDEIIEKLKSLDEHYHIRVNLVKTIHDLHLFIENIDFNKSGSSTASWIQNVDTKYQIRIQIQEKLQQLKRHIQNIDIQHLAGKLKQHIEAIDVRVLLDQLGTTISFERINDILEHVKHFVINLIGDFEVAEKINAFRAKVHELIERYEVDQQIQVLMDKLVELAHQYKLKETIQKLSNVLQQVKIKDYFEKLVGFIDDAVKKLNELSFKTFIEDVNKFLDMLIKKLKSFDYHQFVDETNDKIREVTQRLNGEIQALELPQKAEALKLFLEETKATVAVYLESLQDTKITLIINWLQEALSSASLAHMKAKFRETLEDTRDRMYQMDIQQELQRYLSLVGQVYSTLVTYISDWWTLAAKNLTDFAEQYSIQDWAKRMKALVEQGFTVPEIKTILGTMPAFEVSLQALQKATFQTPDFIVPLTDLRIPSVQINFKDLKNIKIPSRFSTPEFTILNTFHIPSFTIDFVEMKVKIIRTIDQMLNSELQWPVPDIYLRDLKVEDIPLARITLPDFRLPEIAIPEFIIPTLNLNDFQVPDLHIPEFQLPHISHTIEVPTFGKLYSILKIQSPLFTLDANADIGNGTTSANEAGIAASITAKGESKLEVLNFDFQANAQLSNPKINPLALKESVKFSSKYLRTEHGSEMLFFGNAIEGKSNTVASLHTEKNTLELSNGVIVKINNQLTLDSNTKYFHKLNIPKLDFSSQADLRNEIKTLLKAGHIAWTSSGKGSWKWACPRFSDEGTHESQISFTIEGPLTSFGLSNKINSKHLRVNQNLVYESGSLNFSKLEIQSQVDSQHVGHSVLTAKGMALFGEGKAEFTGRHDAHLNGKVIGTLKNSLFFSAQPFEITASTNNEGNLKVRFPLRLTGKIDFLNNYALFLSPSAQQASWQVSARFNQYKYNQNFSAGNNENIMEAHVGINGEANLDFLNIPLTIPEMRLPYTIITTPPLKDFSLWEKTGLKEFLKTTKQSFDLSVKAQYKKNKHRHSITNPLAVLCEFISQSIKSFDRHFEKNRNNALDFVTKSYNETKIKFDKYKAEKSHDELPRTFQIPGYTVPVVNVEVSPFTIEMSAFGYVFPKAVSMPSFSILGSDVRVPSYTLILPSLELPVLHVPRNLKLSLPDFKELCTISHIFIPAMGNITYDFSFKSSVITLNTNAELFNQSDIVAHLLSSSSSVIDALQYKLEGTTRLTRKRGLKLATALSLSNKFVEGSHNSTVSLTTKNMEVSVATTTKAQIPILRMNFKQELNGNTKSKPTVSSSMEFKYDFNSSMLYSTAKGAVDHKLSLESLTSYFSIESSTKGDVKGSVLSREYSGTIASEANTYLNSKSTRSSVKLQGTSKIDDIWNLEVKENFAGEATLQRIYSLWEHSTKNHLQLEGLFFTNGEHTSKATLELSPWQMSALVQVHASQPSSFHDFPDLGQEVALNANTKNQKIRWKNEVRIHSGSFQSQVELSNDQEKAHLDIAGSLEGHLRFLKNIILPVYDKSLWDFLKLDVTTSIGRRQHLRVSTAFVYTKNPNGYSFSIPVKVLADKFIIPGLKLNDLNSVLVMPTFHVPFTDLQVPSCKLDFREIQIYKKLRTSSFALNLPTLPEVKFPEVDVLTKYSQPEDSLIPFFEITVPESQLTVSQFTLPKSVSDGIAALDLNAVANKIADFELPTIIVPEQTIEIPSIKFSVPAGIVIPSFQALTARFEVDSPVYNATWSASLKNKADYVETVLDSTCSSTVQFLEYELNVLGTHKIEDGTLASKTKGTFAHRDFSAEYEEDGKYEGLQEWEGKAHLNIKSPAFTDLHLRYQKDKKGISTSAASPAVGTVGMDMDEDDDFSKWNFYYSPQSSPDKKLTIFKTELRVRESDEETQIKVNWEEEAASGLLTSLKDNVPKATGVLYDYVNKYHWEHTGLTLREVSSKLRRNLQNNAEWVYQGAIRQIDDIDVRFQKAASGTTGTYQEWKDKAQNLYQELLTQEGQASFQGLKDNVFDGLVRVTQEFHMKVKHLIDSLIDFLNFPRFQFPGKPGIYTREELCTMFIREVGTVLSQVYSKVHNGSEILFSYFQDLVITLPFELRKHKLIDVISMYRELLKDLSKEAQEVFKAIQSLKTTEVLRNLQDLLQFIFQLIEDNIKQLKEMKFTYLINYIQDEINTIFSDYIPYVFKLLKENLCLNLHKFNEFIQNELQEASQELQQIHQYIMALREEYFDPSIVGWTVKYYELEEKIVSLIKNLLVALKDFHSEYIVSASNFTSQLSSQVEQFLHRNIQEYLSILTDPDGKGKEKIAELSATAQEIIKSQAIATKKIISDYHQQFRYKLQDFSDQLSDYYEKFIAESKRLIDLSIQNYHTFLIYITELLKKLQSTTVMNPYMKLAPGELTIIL

immobilized LDL [4] = biological target: T3, immobilized LDL; assay: Binding of 125I-MTP / MTP fractions to immobilized LDL
Experimental: The effect of phospholipids on the kinetic parameters of apoB-MTP binding was examined. […] No significant binding of LDL to MTP could be observed at low concentrations (≦3 nM) in the absence of vesicles. However, the effect of vesicles was significant at ≦12.5 nM of LDL. […] In four other experiments, decreases in Kd ranged between 1.5- to 3-fold. The effect of phospholipid vesicles on the binding of ^125I-MTP to immobilized LDL was also examined.
To study the binding of lipid associated MTP with LDL, peaks A, B, and C were pooled, dialyzed and then used to study binding to immobilized LDL. The binding of lipid-poor MTP (peak B), which might have acquired few lipid molecules during its incubation with lipid vesicles, to LDL was increased (70%, P<0.005) compared to the binding of MTP not incubated with lipids (peak A). […] These studies indicate that lipid-associated MTP binds better to LDL as compared to lipid-poor and lipid-free MTP. It is believed that MTP forms stable complexes with phospholipid vesicles and these MTP/lipid complexes have higher affinity for apoB.
Target sequence in this assay (P04114 28-4563, one chain of several): as the sequence (P04114 28-4563) above

inhibition of triglyceride transfer activity (MTP): 60%
effect on LDL/MTP binding (LDL/MTP binding [1]): did not effect LDL/MTP binding
Compound: O=C1c2ccccc2CN1C1CCN(CCC(c2ccccc2)c2ccccc2)CC1 [BMS-200150]

effect of inclusion in PC vesicles on PC-stimulated binding of LDL to MTP (LDL/MTP binding [2]): no additional effect
Compound: CC(C)CCC[C@@H](C)[C@H]1CC[C@H]2[C@@H]3CC=C4C[C@@H](O)CC[C@]4(C)[C@H]3CC[C@]12C [cholesterol]

binding to immobilized LDL compared to free apoA-I (immobilized LDL [3]): significantly less
Compound: apoA-I/lipid complexes: apoA-I incubated with lipid vesicles, complexes isolated by ultracentrifugation

increase of binding to immobilized LDL compared to MTP not incubated with lipids (peak A) (immobilized LDL [4]; P<0.005): 70%
Compound: peak B: lipid-poor MTP fraction recovered after incubation with PC vesicles, fractions 21-24

amount bound to LDL compared to MTP alone (immobilized LDL [4]): three-fold higher
Compound: peak C: MTP associated with lipid vesicles, fractions 3-9

effect of inclusion in PC vesicles on PC-stimulated binding of LDL to MTP (LDL/MTP binding [2]): significantly decreased
Compound: phosphatidyl inositol [PI]

effect of inclusion in PC vesicles on PC-stimulated binding of LDL to MTP (LDL/MTP binding [2]): significantly decreased
Compound: phosphatidyl serine [PS]

effect on LDL binding to MTP (LDL/MTP binding [2]; PC vesicles with or without TG): no additional effect
Compound: triglycerides [TG]
